Results: ChEMBL document CHEMBL1145099, “Aloisines, a new family of CDK/GSK-3 inhibitors. SAR study, crystal structure in complex with CDK2, enzyme selectivity, and cellular effects” (J Med Chem, 2003)

Legend:
[1] = target: T1, Protein kinase C epsilon type (Homo sapiens, UniProt Q02156); test: Inhibition of protein kinase C epsilon
T1 sequence (Q02156 whole entry): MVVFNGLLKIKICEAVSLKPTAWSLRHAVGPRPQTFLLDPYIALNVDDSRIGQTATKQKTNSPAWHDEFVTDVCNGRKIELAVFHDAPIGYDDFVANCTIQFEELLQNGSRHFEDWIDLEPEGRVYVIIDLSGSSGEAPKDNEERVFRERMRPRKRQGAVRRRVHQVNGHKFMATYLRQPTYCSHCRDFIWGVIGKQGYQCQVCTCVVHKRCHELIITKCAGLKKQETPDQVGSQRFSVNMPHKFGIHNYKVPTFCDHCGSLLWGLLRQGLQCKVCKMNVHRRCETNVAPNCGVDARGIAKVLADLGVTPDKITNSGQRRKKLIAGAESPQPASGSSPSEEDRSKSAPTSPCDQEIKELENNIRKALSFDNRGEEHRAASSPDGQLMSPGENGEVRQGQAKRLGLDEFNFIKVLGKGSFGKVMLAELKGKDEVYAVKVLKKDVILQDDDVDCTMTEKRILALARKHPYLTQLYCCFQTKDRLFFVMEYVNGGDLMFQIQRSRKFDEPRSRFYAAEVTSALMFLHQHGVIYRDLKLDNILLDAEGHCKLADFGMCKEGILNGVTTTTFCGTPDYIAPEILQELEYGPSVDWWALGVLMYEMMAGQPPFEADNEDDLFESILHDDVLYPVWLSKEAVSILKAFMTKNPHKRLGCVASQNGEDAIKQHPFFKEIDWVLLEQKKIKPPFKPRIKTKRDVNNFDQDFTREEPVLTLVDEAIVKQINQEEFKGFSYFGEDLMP

[2] = target: Protein kinase C delta type (Homo sapiens, UniProt Q05655); test: Inhibition of protein kinase C delta
Chain of Protein kinase C delta type (Q05655 whole entry): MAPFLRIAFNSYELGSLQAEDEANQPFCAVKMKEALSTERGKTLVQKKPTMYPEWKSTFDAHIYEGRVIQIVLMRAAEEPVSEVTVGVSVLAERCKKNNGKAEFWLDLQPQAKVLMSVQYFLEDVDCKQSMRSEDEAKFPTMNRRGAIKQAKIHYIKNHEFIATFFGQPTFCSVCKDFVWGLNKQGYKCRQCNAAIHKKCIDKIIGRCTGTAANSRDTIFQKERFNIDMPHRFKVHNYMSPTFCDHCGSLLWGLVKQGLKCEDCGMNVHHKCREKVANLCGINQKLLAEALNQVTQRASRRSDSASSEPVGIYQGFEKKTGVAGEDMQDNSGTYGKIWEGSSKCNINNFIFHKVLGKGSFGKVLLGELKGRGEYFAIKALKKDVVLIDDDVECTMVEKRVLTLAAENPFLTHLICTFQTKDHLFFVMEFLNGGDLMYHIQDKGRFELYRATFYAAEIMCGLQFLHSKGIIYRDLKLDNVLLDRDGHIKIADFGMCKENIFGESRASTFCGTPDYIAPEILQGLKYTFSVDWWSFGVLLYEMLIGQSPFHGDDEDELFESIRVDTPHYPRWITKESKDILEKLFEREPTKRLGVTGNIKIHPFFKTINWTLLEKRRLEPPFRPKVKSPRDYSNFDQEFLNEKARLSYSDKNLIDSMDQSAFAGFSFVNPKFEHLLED

[3] = target: Casein kinase I; test: Inhibition of Casein kinase I; assay type: protein assay
[4] = target: Serine/threonine-protein kinase pim-1 (Homo sapiens, UniProt P11309); test: Inhibition of Protein kinase PIM-1
Chain of Serine/threonine-protein kinase pim-1 (P11309 whole entry): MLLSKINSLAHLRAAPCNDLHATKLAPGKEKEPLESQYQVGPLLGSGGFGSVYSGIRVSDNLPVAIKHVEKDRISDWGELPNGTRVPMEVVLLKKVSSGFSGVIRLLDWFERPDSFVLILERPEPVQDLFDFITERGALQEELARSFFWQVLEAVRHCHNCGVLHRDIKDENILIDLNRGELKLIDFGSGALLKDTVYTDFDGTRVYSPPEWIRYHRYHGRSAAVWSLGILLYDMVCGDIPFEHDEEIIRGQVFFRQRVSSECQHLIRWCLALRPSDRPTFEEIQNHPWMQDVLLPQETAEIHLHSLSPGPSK

[5] = Inhibition of cGMP-dependent protein kinase
[6] = target: Cyclin-dependent kinase 4/cyclin D1 (Homo sapiens, UniProt P11802); test: Inhibition of Cyclin-dependent kinase 4-cyclin D1
Chain of Cyclin-dependent kinase 4/cyclin D1 (P11802 whole entry): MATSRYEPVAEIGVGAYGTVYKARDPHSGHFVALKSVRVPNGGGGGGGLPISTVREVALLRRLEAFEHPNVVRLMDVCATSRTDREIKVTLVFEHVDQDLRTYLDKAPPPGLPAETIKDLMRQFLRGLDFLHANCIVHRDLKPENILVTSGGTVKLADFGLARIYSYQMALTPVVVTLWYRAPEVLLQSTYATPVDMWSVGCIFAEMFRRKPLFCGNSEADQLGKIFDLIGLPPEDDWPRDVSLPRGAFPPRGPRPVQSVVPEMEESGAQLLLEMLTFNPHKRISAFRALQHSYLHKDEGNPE
Chain of Cyclin-dependent kinase 4/cyclin D1 (P24385 whole entry, further chain): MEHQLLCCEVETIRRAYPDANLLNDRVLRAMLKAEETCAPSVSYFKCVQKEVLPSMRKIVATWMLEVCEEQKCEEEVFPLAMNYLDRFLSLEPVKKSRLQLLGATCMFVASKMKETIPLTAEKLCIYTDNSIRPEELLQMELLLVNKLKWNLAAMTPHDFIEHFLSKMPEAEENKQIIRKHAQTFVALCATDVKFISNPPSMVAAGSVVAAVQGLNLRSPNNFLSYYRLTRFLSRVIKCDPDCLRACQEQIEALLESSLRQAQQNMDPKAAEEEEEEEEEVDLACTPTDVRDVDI

[7] = target: RAF proto-oncogene serine/threonine-protein kinase (Homo sapiens, UniProt P04049); test: Inhibition of RAF proto-oncogene serine/threonine-protein kinase (c-raf)
Chain of RAF proto-oncogene serine/threonine-protein kinase (P04049 whole entry): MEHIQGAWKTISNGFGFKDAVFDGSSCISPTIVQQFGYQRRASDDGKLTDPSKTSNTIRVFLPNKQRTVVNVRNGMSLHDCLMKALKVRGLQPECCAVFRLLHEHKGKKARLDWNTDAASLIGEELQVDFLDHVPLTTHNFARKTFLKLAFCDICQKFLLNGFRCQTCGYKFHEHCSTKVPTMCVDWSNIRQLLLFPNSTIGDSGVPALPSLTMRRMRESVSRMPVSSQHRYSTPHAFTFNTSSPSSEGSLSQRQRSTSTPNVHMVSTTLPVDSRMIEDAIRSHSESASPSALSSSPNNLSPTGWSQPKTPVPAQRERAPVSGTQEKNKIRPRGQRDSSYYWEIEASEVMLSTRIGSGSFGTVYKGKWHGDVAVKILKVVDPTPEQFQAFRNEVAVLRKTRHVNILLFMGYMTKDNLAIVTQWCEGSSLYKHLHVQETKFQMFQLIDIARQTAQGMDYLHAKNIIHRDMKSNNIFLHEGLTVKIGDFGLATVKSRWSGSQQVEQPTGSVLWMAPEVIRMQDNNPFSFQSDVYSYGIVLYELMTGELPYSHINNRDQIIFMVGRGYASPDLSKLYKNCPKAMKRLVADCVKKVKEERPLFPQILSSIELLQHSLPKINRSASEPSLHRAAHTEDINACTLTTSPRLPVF

[8] = target: Casein kinase II (Homo sapiens, UniProt P19784+P67870+P68400); test: Inhibition of Casein kinase II; assay type: protein-complex assay
Chain of Casein kinase II (P67870 whole entry): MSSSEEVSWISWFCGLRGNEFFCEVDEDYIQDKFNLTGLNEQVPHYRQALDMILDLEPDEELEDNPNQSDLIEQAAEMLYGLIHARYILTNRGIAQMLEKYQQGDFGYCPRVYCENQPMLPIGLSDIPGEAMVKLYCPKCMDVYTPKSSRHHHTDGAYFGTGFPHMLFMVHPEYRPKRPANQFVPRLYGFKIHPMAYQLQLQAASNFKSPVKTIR
Chain of Casein kinase II (P68400 whole entry): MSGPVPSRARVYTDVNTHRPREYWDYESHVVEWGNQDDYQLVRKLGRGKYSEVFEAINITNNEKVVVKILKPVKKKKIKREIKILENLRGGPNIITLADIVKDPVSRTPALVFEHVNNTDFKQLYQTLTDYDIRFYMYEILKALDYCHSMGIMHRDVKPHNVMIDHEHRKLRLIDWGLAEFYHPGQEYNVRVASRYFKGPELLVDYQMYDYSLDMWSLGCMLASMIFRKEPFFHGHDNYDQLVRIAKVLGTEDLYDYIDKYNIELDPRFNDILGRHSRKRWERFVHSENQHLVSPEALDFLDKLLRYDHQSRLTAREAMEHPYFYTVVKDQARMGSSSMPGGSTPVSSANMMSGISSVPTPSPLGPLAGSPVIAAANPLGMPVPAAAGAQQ
Chain of Casein kinase II (P19784 whole entry): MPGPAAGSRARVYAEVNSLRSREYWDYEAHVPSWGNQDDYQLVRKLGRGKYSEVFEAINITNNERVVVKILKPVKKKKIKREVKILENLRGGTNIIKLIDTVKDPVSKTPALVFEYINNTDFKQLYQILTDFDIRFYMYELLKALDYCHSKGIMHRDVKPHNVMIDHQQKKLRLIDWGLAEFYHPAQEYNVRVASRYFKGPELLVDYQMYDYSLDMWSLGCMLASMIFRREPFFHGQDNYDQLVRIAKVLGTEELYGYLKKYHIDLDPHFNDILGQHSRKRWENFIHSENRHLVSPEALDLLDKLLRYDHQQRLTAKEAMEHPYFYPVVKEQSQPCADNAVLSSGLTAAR

[9] = target: Cyclin-dependent kinase 2/cyclin E (Homo sapiens, UniProt P24941); test: Inhibition of Cyclin-dependent kinase 2-cyclin E; assay type: protein-complex assay
[10] = target: Cyclin-dependent kinase 2/cyclin A (Homo sapiens, UniProt P24941); test: Inhibition of Cyclin-dependent kinase 2-cyclin A; assay type: protein-complex assay
[11] = target: Protein kinase C alpha type (Homo sapiens, UniProt P17252); test: Inhibition of protein kinase C alpha
[12] = Inhibition of cAMP dependent protein kinase, PKA
[13] = target: Dual specificity mitogen-activated protein kinase kinase; MEK1/2 (Homo sapiens, UniProt P36507+Q02750); test: Inhibition of Mitogen activated protein kinase kinase; assay type: protein assay
[14] = target: Protein kinase C gamma type (Homo sapiens, UniProt P05129); test: Inhibition of Protein kinase C gamma
[15] = target: Protein kinase C beta type (Homo sapiens, UniProt P05771); test: Inhibition of Protein kinase C beta
[16] = target: T2, Serine/threonine-protein kinase D1 (Homo sapiens, UniProt Q15139); test: Inhibition of Protein kinase C mu
T2 sequence (Q15139 whole entry): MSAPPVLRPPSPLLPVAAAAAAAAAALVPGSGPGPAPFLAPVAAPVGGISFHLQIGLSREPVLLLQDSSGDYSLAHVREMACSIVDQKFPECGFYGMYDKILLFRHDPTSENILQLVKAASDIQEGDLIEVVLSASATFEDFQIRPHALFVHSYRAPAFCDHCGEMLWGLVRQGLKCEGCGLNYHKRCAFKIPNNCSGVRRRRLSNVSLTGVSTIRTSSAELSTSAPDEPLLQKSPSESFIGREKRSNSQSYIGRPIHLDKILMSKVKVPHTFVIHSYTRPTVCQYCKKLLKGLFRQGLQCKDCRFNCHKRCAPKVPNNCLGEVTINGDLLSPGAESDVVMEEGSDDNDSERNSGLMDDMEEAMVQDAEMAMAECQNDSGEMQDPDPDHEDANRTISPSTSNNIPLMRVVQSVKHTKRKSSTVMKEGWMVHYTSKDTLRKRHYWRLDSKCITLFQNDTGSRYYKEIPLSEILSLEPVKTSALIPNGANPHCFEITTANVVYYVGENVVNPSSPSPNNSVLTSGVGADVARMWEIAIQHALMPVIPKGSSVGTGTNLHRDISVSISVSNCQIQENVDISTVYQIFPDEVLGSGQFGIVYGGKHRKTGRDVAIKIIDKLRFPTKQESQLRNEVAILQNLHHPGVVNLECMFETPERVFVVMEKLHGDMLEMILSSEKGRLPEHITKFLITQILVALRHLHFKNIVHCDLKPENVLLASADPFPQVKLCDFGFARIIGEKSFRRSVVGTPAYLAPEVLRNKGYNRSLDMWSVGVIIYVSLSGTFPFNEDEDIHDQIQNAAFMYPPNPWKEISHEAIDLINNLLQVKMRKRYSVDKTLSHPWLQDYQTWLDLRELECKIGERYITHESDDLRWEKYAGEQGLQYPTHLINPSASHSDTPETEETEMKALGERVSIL

[17] = target: T3, Protein kinase C zeta type (Homo sapiens, UniProt Q05513); test: Inhibition of protein kinase C zeta
T3 sequence (Q05513 whole entry): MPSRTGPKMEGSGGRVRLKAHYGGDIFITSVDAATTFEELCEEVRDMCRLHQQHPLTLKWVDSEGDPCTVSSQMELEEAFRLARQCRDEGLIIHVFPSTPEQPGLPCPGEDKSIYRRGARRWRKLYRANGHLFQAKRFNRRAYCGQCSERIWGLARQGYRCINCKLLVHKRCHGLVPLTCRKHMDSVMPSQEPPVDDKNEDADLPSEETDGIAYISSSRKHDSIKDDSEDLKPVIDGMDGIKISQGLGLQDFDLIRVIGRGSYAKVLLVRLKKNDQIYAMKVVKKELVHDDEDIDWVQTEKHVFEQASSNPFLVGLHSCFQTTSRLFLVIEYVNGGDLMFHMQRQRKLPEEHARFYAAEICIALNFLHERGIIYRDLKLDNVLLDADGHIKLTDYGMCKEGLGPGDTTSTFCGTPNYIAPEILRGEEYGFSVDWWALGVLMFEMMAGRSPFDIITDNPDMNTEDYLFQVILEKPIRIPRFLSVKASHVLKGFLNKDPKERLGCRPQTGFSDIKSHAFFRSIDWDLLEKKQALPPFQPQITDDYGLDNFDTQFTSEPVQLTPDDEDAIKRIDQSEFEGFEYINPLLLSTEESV

[18] = target: c-Jun N-terminal kinase, JNK (Homo sapiens, UniProt P45983+P53779+P45984); test: Inhibition of c-Jun N-terminal kinase; assay type: protein assay

Structure (SMILES): CCCCc1c(-c2ccc(O)cc2)[nH]c2nccnc12 [ALOISINE A]
- IC50 [1]: > 100 µM
- IC50 [2]: > 100 µM
- IC50 [3]: > 100 µM
- IC50 [4]: > 10 µM
- IC50 [5]: 100 µM
- IC50 [6]: > 100 µM
- IC50 [7]: > 100 µM
- IC50 [8]: > 100 µM
- IC50 [9]: 0.4 µM
- IC50 [10]: 0.12 µM
- IC50 [11]: > 100 µM
- IC50 [12]: 100 µM
- IC50 [13]: > 100 µM
- IC50 [14]: > 100 µM
- IC50 [15]: > 100 µM
- IC50 [16]: > 100 µM
- IC50 [17]: > 100 µM
- IC50 [18]: 3.3 µM
